Source: patent US10500318B1, “Dosing regimens for treating hypoxia-associated tissue damage” (Temple Therapeutics BV, priority 2018, dated 2019)
Residues, ends and D or L forms follow the SMILES beside them.

Columns and labels:
HIF-1α = HIF-1α ELISA in normal peritoneal fibroblasts after episodic hypoxia and Ala-Gln treatment; assay type: cell-based; details: for HIF-1α 12 hours after hypoxia initiation / HIF-1α 24 hours after hypoxia initiation: NPF
Experimental: Primary cultures of normal peritoneal fibroblasts (NPF) were established and pre-hypoxia samples were taken to determine levels of HIF-1α and Type 1 Collagen (COL1A1) under normoxic conditions prior to exposure to episodic hypoxic environments. Cultured cells were exposed to episodes of hypoxia (2% 02; 0.5, 1, 2, or 4, […] hours), followed by restoration of normoxia (20% O2) and immediate treatment with Ala-[…], 1, 2, or 10 mM). Levels of HIF-1α and COL1A1 were measured at 12 hours and 24 hours following the initiation of hypoxia. All treatments were completed in triplicate. HIF-1α and COL1A1 levels were determined by ELISA (HIF-1α ELISA (ThermoFisher Scientific) or COL1A1 ELISA (LifeSpan Biosciences), respectively, per the manufacturer's protocol). Data were analyzed with one-way ANOVA followed by Tukey's tests with Bonferroni correction. Results for HIF-1α are in Tables 1-3.

[1] = at room temperature; cited from earlier work

With `C[C@H](N)C(=O)N[C@@H](CCC(N)=O)C(=O)O` [AG, L-alanyl-L-glutamine] (H-Ala-Gln-OH) the “HIF-1α difference from untreated controls” value (“HIF-1α difference” below) (HIF-1α; AG 1.0 mM, 12 h post hypoxia initiation, hypoxia time 0.5 h) was 3.6 pg/mg protein, the “HIF-1α difference” value (HIF-1α; AG 1.0 mM, 12 h post hypoxia initiation, hypoxia time 1.0 h) was 2.3 pg/mg protein and the “HIF-1α difference” value (HIF-1α; AG 1.0 mM, 12 h post hypoxia initiation, hypoxia time 2.0 h) was 2.4 pg/mg protein. The “HIF-1α difference” value (HIF-1α; AG 1.0 mM, 12 h post hypoxia initiation, hypoxia time 4.0 h) was 0.9 pg/mg protein, the “HIF-1α difference” value (HIF-1α; AG 1.0 mM, 24 h post hypoxia initiation, hypoxia time 0.5 h) was 1.6 pg/mg protein and the “HIF-1α difference” value (HIF-1α; AG 1.0 mM, 24 h post hypoxia initiation, hypoxia time 1.0 h) was 3.1 pg/mg protein. For the same molecule, the “HIF-1α difference” value (HIF-1α; AG 1.0 mM, 24 h post hypoxia initiation, hypoxia time 2.0 h) was 1.8 pg/mg protein, the “HIF-1α difference” value (HIF-1α; AG 1.0 mM, 24 h post hypoxia initiation, hypoxia time 4.0 h) was 0.7 pg/mg protein and the “HIF-1α 12 hours after hypoxia initiation” value (HIF-1α; AG 1.0 mM, hypoxia time 0.5 h) was 4.2 pg/mg protein. The “HIF-1α 24 hours after hypoxia initiation” value (HIF-1α; AG 1.0 mM, hypoxia time 0.5 h) was 3.6 pg/mg protein, the “HIF-1α 12 hours after hypoxia initiation” value (HIF-1α; AG 1.0 mM, hypoxia time 1.0 h) was 4.6 pg/mg protein and the “HIF-1α 24 hours after hypoxia initiation” value (HIF-1α; AG 1.0 mM, hypoxia time 1.0 h) was 4.6 pg/mg protein. The “HIF-1α 12 hours after hypoxia initiation” value (HIF-1α; AG 1.0 mM, hypoxia time 2.0 h) was 3.3 pg/mg protein, the “HIF-1α 24 hours after hypoxia initiation” value (HIF-1α; AG 1.0 mM, hypoxia time 2.0 h) was 3.3 pg/mg protein and the “HIF-1α 12 hours after hypoxia initiation” value (HIF-1α; AG 1.0 mM, hypoxia time 4.0 h) was 4.9 pg/mg protein. The “HIF-1α 24 hours after hypoxia initiation” value (HIF-1α; AG 1.0 mM, hypoxia time 4.0 h) was 4.9 pg/mg protein, the “HIF-1α difference” value (HIF-1α; AG 2.0 mM, 12 h post hypoxia initiation, hypoxia time 0.5 h) was 3.1 pg/mg protein and the “HIF-1α difference” value (HIF-1α; AG 2.0 mM, 12 h post hypoxia initiation, hypoxia time 1.0 h) was 4.5 pg/mg protein. The “HIF-1α difference” value (HIF-1α; AG 2.0 mM, 12 h post hypoxia initiation, hypoxia time 2.0 h) was 2.5 pg/mg protein, the “HIF-1α difference” value (HIF-1α; AG 2.0 mM, 12 h post hypoxia initiation, hypoxia time 4.0 h) was 1.4 pg/mg protein and the “HIF-1α difference” value (HIF-1α; AG 2.0 mM, 24 h post hypoxia initiation, hypoxia time 0.5 h) was 1.1 pg/mg protein. For the same molecule, the “HIF-1α difference” value (HIF-1α; AG 2.0 mM, 24 h post hypoxia initiation, hypoxia time 1.0 h) was 5.3 pg/mg protein, the “HIF-1α difference” value (HIF-1α; AG 2.0 mM, 24 h post hypoxia initiation, hypoxia time 2.0 h) was 1.9 pg/mg protein and the “HIF-1α difference” value (HIF-1α; AG 2.0 mM, 24 h post hypoxia initiation, hypoxia time 4.0 h) was 1.2 pg/mg protein. The “HIF-1α 12 hours after hypoxia initiation” value (HIF-1α; AG 2.0 mM, hypoxia time 0.5 h) was 4.7 pg/mg protein, the “HIF-1α 24 hours after hypoxia initiation” value (HIF-1α; AG 2.0 mM, hypoxia time 0.5 h) was 4.1 pg/mg protein and the “HIF-1α 12 hours after hypoxia initiation” value (HIF-1α; AG 2.0 mM, hypoxia time 1.0 h) was 2.4 pg/mg protein. The “HIF-1α 24 hours after hypoxia initiation” value (HIF-1α; AG 2.0 mM, hypoxia time 1.0 h) was 2.4 pg/mg protein, the “HIF-1α 12 hours after hypoxia initiation” value (HIF-1α; AG 2.0 mM, hypoxia time 2.0 h) was 3.2 pg/mg protein and the “HIF-1α 24 hours after hypoxia initiation” value (HIF-1α; AG 2.0 mM, hypoxia time 2.0 h) was 3.2 pg/mg protein. The “HIF-1α 12 hours after hypoxia initiation” value (HIF-1α; AG 2.0 mM, hypoxia time 4.0 h) was 4.4 pg/mg protein, the “HIF-1α 24 hours after hypoxia initiation” value (HIF-1α; AG 2.0 mM, hypoxia time 4.0 h) was 4.4 pg/mg protein and the “HIF-1α difference” value (HIF-1α; AG 10.0 mM, 12 h post hypoxia initiation, hypoxia time 0.5 h) was 2.6 pg/mg protein. The “HIF-1α difference” value (HIF-1α; AG 10.0 mM, 12 h post hypoxia initiation, hypoxia time 1.0 h) was 3.0 pg/mg protein, the “HIF-1α difference” value (HIF-1α; AG 10.0 mM, 12 h post hypoxia initiation, hypoxia time 2.0 h) was 1.6 pg/mg protein and the “HIF-1α difference” value (HIF-1α; AG 10.0 mM, 12 h post hypoxia initiation, hypoxia time 4.0 h) was 0.3 pg/mg protein. For the same molecule, the “HIF-1α difference” value (HIF-1α; AG 10.0 mM, 24 h post hypoxia initiation, hypoxia time 0.5 h) was 1.6 pg/mg protein, the “HIF-1α difference” value (HIF-1α; AG 10.0 mM, 24 h post hypoxia initiation, hypoxia time 1.0 h) was 3.8 pg/mg protein and the “HIF-1α difference” value (HIF-1α; AG 10.0 mM, 24 h post hypoxia initiation, hypoxia time 2.0 h) was 1 pg/mg protein. The “HIF-1α difference” value (HIF-1α; AG 10.0 mM, 24 h post hypoxia initiation, hypoxia time 4.0 h) was 0.1 pg/mg protein, the “HIF-1α 12 hours after hypoxia initiation” value (HIF-1α; AG 10.0 mM, hypoxia time 0.5 h) was 5.2 pg/mg protein and the “HIF-1α 24 hours after hypoxia initiation” value (HIF-1α; AG 10.0 mM, hypoxia time 0.5 h) was 3.6 pg/mg protein. The “HIF-1α 12 hours after hypoxia initiation” value (HIF-1α; AG 10.0 mM, hypoxia time 1.0 h) was 3.9 pg/mg protein, the “HIF-1α 24 hours after hypoxia initiation” value (HIF-1α; AG 10.0 mM, hypoxia time 1.0 h) was 3.9 pg/mg protein and the “HIF-1α 12 hours after hypoxia initiation” value (HIF-1α; AG 10.0 mM, hypoxia time 2.0 h) was 4.1 pg/mg protein. For the same molecule, the “HIF-1α 24 hours after hypoxia initiation” value (HIF-1α; AG 10.0 mM, hypoxia time 2.0 h) was 4.1 pg/mg protein, the “HIF-1α 12 hours after hypoxia initiation” value (HIF-1α; AG 10.0 mM, hypoxia time 4.0 h) was 5.5 pg/mg protein and the “HIF-1α 24 hours after hypoxia initiation” value (HIF-1α; AG 10.0 mM, hypoxia time 4.0 h) was 5.5 pg/mg protein. The “HIF-1α difference” value (HIF-1α; Average all doses, 12 h post hypoxia initiation, hypoxia time 0.5 h) was 3.1 pg/mg protein, the “HIF-1α difference” value (HIF-1α; Average all doses, 12 h post hypoxia initiation, hypoxia time 1.0 h) was 3.27 pg/mg protein and the “HIF-1α difference” value (HIF-1α; Average all doses, 12 h post hypoxia initiation, hypoxia time 2.0 h) was 2.17 pg/mg protein. The “HIF-1α difference” value (HIF-1α; Average all doses, 12 h post hypoxia initiation, hypoxia time 4.0 h) was 0.87 pg/mg protein, the “HIF-1α difference” value (HIF-1α; Average all doses, 24 h post hypoxia initiation, hypoxia time 0.5 h) was 1.43 pg/mg protein and the “HIF-1α difference” value (HIF-1α; Average all doses, 24 h post hypoxia initiation, hypoxia time 1.0 h) was 4.07 pg/mg protein. For the same molecule, the “HIF-1α difference” value (HIF-1α; Average all doses, 24 h post hypoxia initiation, hypoxia time 2.0 h) was 1.57 pg/mg protein, the “HIF-1α difference” value (HIF-1α; Average all doses, 24 h post hypoxia initiation, hypoxia time 4.0 h) was 0.67 pg/mg protein and the “effect on HIF-1α as compared to untreated cells” value (HIF-1α; at 12 and 24 hours, all durations of hypoxia) was “reduction of HIF-1α”.
In the case of `NC(=O)CC[C@H](N)C(=O)O` [L-glutamine], the water solubility [1] is listed as “about 40 g/L”.
